According to patent US20250376461A1, “INDAZOLE DERIVATIVES FOR TREATING TRPM3-MEDIATED DISORDERS” (Katholieke Universiteit Leuven, priority 2022, published 2025):

Target: T1, mouse TRPM3α2 (mTRPM3) ion channel (Mus musculus, UniProt J9SQF3)
T1 construct: expressed in transfected cells; host or cells: flip-in HEK293
Experiment: TRPM3 ion channel driven Ca2+ uptake, Fluo-4 AM assay, mTRPM3alpha2 overexpressing flip-in HEK293 cells stimulated with pregnenolone sulfate (50 μM)
Type: cell-based
Details: mTRPM3 overexpressing HEK293 cells stimulated with pregnenolone sulfate (50 μM), activity ranges A, B, C
How it was run: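 Ca2+ influx via mouse TRPM3α2 was opened with pregnenolone sulfate (50 μM) and tracked by Fluo-4 AM fluorescence at 485/535 nm, read directly after adding about 2000 stably transfected HEK293 cells per well to compound. IC50 values come from percent inhibition scaled to vehicle and positive-control inhibitor signals.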

T1 sequence (J9SQF3 1-1709 isoform J9SQF3-12): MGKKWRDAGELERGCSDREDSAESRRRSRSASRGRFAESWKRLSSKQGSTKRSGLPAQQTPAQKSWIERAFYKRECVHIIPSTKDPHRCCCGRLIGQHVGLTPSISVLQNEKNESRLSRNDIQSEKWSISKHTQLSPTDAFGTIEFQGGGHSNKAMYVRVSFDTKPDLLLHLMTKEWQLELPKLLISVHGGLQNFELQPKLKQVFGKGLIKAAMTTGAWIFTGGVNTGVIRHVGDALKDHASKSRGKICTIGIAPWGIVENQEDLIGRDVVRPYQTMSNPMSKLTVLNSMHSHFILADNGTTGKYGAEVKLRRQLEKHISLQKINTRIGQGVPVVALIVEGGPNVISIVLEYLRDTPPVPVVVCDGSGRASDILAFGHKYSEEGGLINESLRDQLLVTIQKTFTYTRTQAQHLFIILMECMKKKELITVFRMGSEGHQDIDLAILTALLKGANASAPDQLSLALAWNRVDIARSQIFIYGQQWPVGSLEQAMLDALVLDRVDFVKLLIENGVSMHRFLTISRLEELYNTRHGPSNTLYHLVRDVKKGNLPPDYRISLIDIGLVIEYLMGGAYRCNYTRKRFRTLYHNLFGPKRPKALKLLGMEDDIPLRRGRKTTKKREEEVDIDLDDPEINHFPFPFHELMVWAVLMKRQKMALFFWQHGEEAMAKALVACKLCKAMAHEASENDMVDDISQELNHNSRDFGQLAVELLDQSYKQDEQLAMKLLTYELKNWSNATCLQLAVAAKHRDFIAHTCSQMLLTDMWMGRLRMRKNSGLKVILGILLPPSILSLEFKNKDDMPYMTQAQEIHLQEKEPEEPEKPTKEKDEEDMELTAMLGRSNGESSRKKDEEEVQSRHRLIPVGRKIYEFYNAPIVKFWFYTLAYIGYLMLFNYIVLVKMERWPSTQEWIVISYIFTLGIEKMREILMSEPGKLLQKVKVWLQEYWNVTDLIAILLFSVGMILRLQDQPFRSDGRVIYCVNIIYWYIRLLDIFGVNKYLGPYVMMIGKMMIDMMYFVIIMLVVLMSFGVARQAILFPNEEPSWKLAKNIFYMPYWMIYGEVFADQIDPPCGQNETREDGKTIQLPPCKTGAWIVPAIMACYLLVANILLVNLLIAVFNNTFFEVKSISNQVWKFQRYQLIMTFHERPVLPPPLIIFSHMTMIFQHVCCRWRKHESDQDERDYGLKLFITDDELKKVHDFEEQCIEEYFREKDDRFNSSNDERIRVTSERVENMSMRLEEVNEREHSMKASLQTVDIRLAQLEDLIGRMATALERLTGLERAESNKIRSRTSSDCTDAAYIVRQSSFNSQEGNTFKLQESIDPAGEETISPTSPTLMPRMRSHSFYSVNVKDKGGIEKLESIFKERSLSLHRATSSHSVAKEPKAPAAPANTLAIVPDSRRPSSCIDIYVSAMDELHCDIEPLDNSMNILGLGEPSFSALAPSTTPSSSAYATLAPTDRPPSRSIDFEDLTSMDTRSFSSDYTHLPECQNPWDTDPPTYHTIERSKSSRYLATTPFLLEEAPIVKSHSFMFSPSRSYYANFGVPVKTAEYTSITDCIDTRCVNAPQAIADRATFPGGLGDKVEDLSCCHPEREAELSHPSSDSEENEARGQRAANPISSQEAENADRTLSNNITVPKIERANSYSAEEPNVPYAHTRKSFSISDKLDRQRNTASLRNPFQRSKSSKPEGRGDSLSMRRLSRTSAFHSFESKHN

Row | IC50 [nM] | Structure (SMILES)
1 | 1000 to 20000 | CN(C)C(=O)C1(NC(=O)c2c3cc(OCc4cccnc4C(F)(F)F)ccc3nn2C)CCOC1 (single isomer, unassigned) [Cpd 186 - En2]
2 | 1000 to 20000 | Cn1nc2ccc(OCc3ccccc3)cc2c1C(=O)NC1CCN(CCO)C1=O (stereo not shown) [Cpd 038, 5-(benzyloxy)-N-[1-(2-hydroxyethyl)-2-oxopyrrolidin-3-yl]-2-methyl-2H-indazole-3-carboxamide]
3 | < 1000 | Cn1nc2ccc(OCc3ccccc3F)cc2c1C(=O)NC1(C(N)=O)CCOC1 (single isomer, unassigned) [Cpd 166 - En2]
4 | > 20000 | Cn1nc2ccc(OCc3ccccn3)cc2c1C(=O)NC(CO)Cc1ncccn1 (single isomer, unassigned) [Cpd 243 - En1]
5 | 1000 to 20000 | Cc1ncc(COc2ccc3nn(C)c(C(=O)N[C@@H](C)C(N)=O)c3c2)s1 [Cpd 119, (2S)-2-({2-methyl-5-[(2-methyl-1,3-thiazol-5-yl)methoxy]-2H-indazol-3-yl}formamido)propanamide]
6 | 1000 to 20000 | Cn1nc2ccc(OCc3cccnc3C(F)(F)F)cc2c1C(=O)NCCN1CCOC1=O [Cpd 073, 2-methyl-N-[2-(2-oxo-1,3-oxazolidin-3-yl)ethyl]-5-{[2-(trifluoromethyl)pyridin-3-yl]methoxy}-2H-indazole-3-carboxamide]
7 | < 1000 | Cc1ccc(COc2ccc3nn(C)c(C(=O)NC(C)(CO)C(N)=O)c3c2)cn1 (single isomer, unassigned) [Cpd 174 - En2]
8 | 1000 to 20000 | Cn1nc2ccc(OCc3ccccn3)cc2c1C(=O)NC1CNCCC1(F)F (single isomer, unassigned) [Cpd 212 - En1, N-(4,4-difluoropiperidin-3-yl)-2-methyl-5-[(pyridin-2-yl)methoxy]-2H-indazole-3-carboxamide]
9 | < 1000 | Cc1ncsc1COc1ccc2nn(C)c(C(=O)NCc3cccc(O)n3)c2c1 [Cpd 089, N-[(6-hydroxypyridin-2-yl)methyl]-2-methyl-5-[(4-methyl-1,3-thiazol-5-yl)methoxy]-2H-indazole-3-carboxamide]
10 | < 1000 | Cc1ncc(COc2ccc3nn(C)c(C(=O)NC(C)(CO)C(N)=O)c3c2)s1 (single isomer, unassigned) [Cpd 157 - En2, 3-hydroxy-2-methyl-2-({2-methyl-5-[(2-methyl-1,3-thiazol-5-yl)methoxy]-2H-indazol-3-yl}formamido)propanamide]
11 | < 1000 | Cc1ncsc1COc1ccc2nn(C)c(C(=O)NC(C)(CO)CO)c2c1 [Cpd 021, N-(1,3-dihydroxy-2-methylpropan-2-yl)-2-methyl-5-[(4-methyl-1,3-thiazol-5-yl)methoxy]-2H-indazole-3-carboxamide]
12 | 1000 to 20000 | Cn1nc2ccc(OCc3ccccn3)cc2c1C(=O)NC1(CO)COC1 [Cpd 100, N-[3-(hydroxymethyl)oxetan-3-yl]-2-methyl-5-[(pyridin-2-yl)methoxy]-2H-indazole-3-carboxamide]
13 | 1000 to 20000 | Cn1nc2ccc(OCc3ccccn3)cc2c1C(=O)NC1(CO)CC1C(F)F (single isomer, unassigned) [Cpd 237 - En1]
14 | 1000 to 20000 | Cn1nc2ccc(OCc3ccccc3F)cc2c1C(=O)O [Cpd 198, 5-[(2-fluorophenyl)methoxy]-2-methyl-2H-indazole-3-carboxylic acid]
15 | > 20000 | Cc1ncc(COc2ccc3nn(C)c(C(=O)N[C@H](C)C(N)=O)c3c2)s1 [Cpd 117, (2R)-2-({2-methyl-5-[(2-methyl-1,3-thiazol-5-yl)methoxy]-2H-indazol-3-yl}formamido)propanamide]
16 | 1000 to 20000 | Cn1nc2ccc(OCc3ccccc3F)cc2c1C(=O)NC1(CO)CCC1 [Cpd 094, 5-[(2-fluorophenyl)methoxy]-N-[1-(hydroxymethyl)cyclobutyl]-2-methyl-2H-indazole-3-carboxamide]
17 | < 1000 | CC(=O)C(C)(CO)NC(=O)c1c2cc(OCc3ccccn3)ccc2nn1C (single isomer, unassigned) [Cpd 232 - En2]
18 | > 20000 | Cn1nc2ccc(OCc3ccccn3)cc2c1C(=O)NC(CO)CC(N)=O (single isomer, unassigned) [Cpd 240 - En1, 4-hydroxy-3-({2-methyl-5-[(pyridin-2-yl)methoxy]-2H-indazol-3-yl}formamido)butanamide]
19 | 1000 to 20000 | Cn1ccc(NC(=O)c2c3cc(OCc4cccnc4C(F)(F)F)ccc3nn2C)n1 [Cpd 013, 2-methyl-N-(1-methyl-1H-pyrazol-3-yl)-5-{[2-(trifluoromethyl)pyridin-3-yl]methoxy}-2H-indazole-3-carboxamide]
20 | 1000 to 20000 | Cn1nc2ccc(OCC3CCC3)cc2c1C(=O)NC(C)(CO)C(N)=O (single isomer, unassigned) [Cpd 173 - En2]
21 | < 1000 | CNC(=O)C(C)(CO)NC(=O)c1c2cc(OCc3scnc3C)ccc2nn1C (single isomer, unassigned) [Cpd 185 - En2, 3-hydroxy-N,2-dimethyl-2-({2-methyl-5-[(4-methyl-1,3-thiazol-5-yl)methoxy]-2H-indazol-3-yl}formamido)propanamide]
22 | 1000 to 20000 | Cn1nc2ccc(OCc3cccnc3C(F)(F)F)cc2c1C(=O)NC1(CO)CCOCC1 [Cpd 029, N-[4-(hydroxymethyl)oxan-4-yl]-2-methyl-5-{[2-(trifluoromethyl)pyridin-3-yl]methoxy}-2H-indazole-3-carboxamide]

Row | IC50 [nM] | Structure (SMILES)
23 | 1000 to 20000 | Cn1nc2ccc(OCc3ccccc3)cc2c1C(=O)N[C@@H]1COC[C@H]1O (single isomer, unassigned) [Cpd 011 - Dia2]
24 | 1000 to 20000 | Cc1ncsc1COc1ccc2nn(C)c(C(=O)NC3CCOCC3)c2c1 [Cpd 115, 2-methyl-5-[(4-methyl-1,3-thiazol-5-yl)methoxy]-N-(oxan-4-yl)-2H-indazole-3-carboxamide]
25 | 1000 to 20000 | CN(C)C1(CNC(=O)c2c3cc(OCc4cccnc4C(F)(F)F)ccc3nn2C)CCC1 [Cpd 042, N-{[1-(dimethylamino)cyclobutyl]methyl}-2-methyl-5-{[2-(trifluoromethyl)pyridin-3-yl]methoxy}-2H-indazole-3-carboxamide]
26 | < 1000 | Cc1ncsc1COc1ccc2nn(C)c(C(=O)NC(C)(CO)CC(F)F)c2c1 (single isomer, unassigned) [Cpd 182 - En2]
27 | < 1000 | Cn1nc2ccc(OCc3cccnc3C(F)(F)F)cc2c1C(=O)NC(C)(CO)CC(F)F (single isomer, unassigned) [Cpd 202 - En1]
28 | < 1000 | Cc1ncc(COc2ccc3nn(C)c(C(=O)N[C@@H](CO)C(N)=O)c3c2)o1 [Cpd 141, (2S)-3-hydroxy-2-({2-methyl-5-[(2-methyl-1,3-oxazol-5-yl)methoxy]-2H-indazol-3-yl}formamido)propanamide]
29 | 1000 to 20000 | Cn1nc2ccc(OCc3ccccn3)cc2c1C(=O)NC1(CC(F)F)CCCNC1 (single isomer, unassigned) [Cpd 248 - En2]
30 | 1000 to 20000 | Cc1ncsc1COc1ccc2nn(C)c(C(=O)NCC3(N(C)C)CCC3)c2c1 [Cpd 072, N-{[1-(dimethylamino)cyclobutyl]methyl}-2-methyl-5-[(4-methyl-1,3-thiazol-5-yl)methoxy]-2H-indazole-3-carboxamide]
31 | 1000 to 20000 | Cn1nc2ccc(OCc3ccccc3C(F)F)cc2c1C(=O)NC1(CO)CCNC1=O (single isomer, unassigned) [Cpd 176 - En2]
32 | 1000 to 20000 | Cc1ncsc1COc1ccc2nn(C)c(C(=O)NC3(C(N)=O)CCOCC3)c2c1 [Cpd 107, N-(4-carbamoyloxan-4-yl)-2-methyl-5-[(4-methyl-1,3-thiazol-5-yl)methoxy]-2H-indazole-3-carboxamide]
33 | 1000 to 20000 | CN1CCC(NC(=O)c2c3cc(OCc4ccccc4)ccc3nn2C)C1 (stereo not shown) [Cpd 092, 5-(benzyloxy)-2-methyl-N-(1-methylpyrrolidin-3-yl)-2H-indazole-3-carboxamide]
34 | > 20000 | Cn1nccc1COc1ccc2nn(C)c(C(=O)NC(C)(CO)C(N)=O)c2c1 (single isomer, unassigned) [Cpd 154 - En1]
35 | 1000 to 20000 | Cc1ncc(COc2ccc3nn(C)c(C(=O)NC(C)(CO)C(N)=O)c3c2)o1 (single isomer, unassigned) [Cpd 179 - En1]
36 | 1000 to 20000 | Cn1nc2ccc(OCC3CCC3)cc2c1C(=O)NC(C)(CO)CO [Cpd 129, 5-(cyclobutylmethoxy)-N-(1,3-dihydroxy-2-methylpropan-2-yl)-2-methyl-2H-indazole-3-carboxamide]
37 | 1000 to 20000 | Cn1nccc1COc1ccc2nn(C)c(C(=O)NCCN3CCOC3=O)c2c1 [Cpd 055, 2-methyl-5-[(1-methyl-1H-pyrazol-5-yl)methoxy]-N-[2-(2-oxo-1,3-oxazolidin-3-yl)ethyl]-2H-indazole-3-carboxamide]
38 | < 1000 | Cn1nc2ccc(OCc3ccccc3F)cc2c1C(=O)NC(C)(CO)CC(F)F (single isomer, unassigned) [Cpd 203 - En1]
39 | > 20000 | Cn1nc2ccc(OCc3ccccc3)cc2c1C(=O)NC1CNCC1(F)F (single isomer, unassigned) [Cpd 002 - En1, 5-(benzyloxy)-N-(4,4-difluoropyrrolidin-3-yl)-2-methyl-2H-indazole-3-carboxamide]
40 | < 1000 | Cn1nc2ccc(OCC3CCCC3)cc2c1C(=O)N[C@@H](CO)C(N)=O [Cpd 143, (2S)-2-{[5-(cyclopentylmethoxy)-2-methyl-2H-indazol-3-yl]formamido}-3-hydroxypropanamide]
41 | > 20000 | CN1CC(NC(=O)c2c3cc(OCc4ccnn4C)ccc3nn2C)C(F)(F)C1 (stereo not shown) [Cpd 088, N-(4,4-difluoro-1-methylpyrrolidin-3-yl)-2-methyl-5-[(1-methyl-1H-pyrazol-5-yl)methoxy]-2H-indazole-3-carboxamide]
42 | 1000 to 20000 | CN(C)C1(CNC(=O)c2c3cc(OCc4ccccc4)ccc3nn2C)CCC1 [Cpd 078, 5-(benzyloxy)-N-{[1-(dimethylamino)cyclobutyl]methyl}-2-methyl-2H-indazole-3-carboxamide]
43 | < 1000 | Cn1nc2ccc(OCc3ccccc3C(F)F)cc2c1C(=O)NC1(C(N)=O)CCOC1 (single isomer, unassigned) [Cpd 175 - En1]
